Measured values from patent US20070054916A1, “Aryl nitrogen-containing bicyclic compounds and methods of use” (Amgen Inc., priority 2004, published 2007).

Each compound was assayed on production of TNF by monocytes activated with bacterial lipopolysaccharide (LPS) (assay: Lipopolysaccharide-activated monocyte TNF production assay). Conditions: Homo sapiens, read-out: IC50 values in the monocyte assay (LPS induced TNF release).
Assay type: cell-based
Summary of the method: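 Adherent human PBMC-derived monocytes (~70%) in DMEM/2% FCS were pre-incubated 60 min with nine two-fold compound dilutions, then stimulated with E. coli K532 LPS (added as 30 ng/ml solution) for 4 h at 37 °C. Supernatant TNF-α was measured by sandwich ELISA. IC50 was taken from a polynomial fit of TNF versus compound concentration.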

Row | Structure (SMILES) | IC50 [µM]
1 | Cc1ccc(C(=O)Nc2cc(C(C)(C)C)ccc2N(C)CCCN(C)C)cc1-c1ccc2nc(N)ncc2c1 [Example 244, 3-(2-amino-6-quinazolinyl)-N-(2-((3-(dimethylamino)propyl)(methyl)amino)-5-(1,1-dimethylethyl)phenyl)-4-methylbenzamide] | ≤ 25
2 | COc1ccc(NC(=O)c2ccc(C)c(-c3ccc4nc(N)ncc4c3)c2)c(OC)c1 [Example 270, 3-(2-amino-6-quinazolinyl)-N-(2,4-bis(methyloxy)phenyl)-4-methylbenzamide] | ≤ 25
3 | Cc1ccc(C(=O)Nc2cc(C(F)(F)F)ccc2F)cc1-c1ccc2nc(N)ncc2c1 [Example 280, 3-(2-amino-6-quinazolinyl)-N-(2-fluoro-5-(trifluoromethyl)phenyl)-4-methylbenzamide] | ≤ 25
4 | Cc1ccc(C(=O)Nc2cccc3ncccc23)cc1-c1ccc2nc(N)ncc2c1 [Example 281, 3-(2-amino-6-quinazolinyl)-4-methyl-N-(5-quinolinyl)benzamide] | ≤ 25
5 | COc1cccc(NC(=O)c2ccc(C)c(-c3ccc4nc(N)ncc4c3)c2)c1OC [Example 283, 3-(2-amino-6-quinazolinyl)-N-(5,6-bis(methyloxy)-phenyl)-4-methylbenzamide] | ≤ 25
6 | COc1c(Cl)cccc1NC(=O)c1ccc(C)c(-c2ccc3nc(N)ncc3c2)c1 [Example 284, 3-(2-amino-6-quinazolinyl)-N-(5-chloro-8-(methyloxy)-phenyl)-4-methylbenzamide] | ≤ 25
7 | Cc1ccc(C(=O)Nc2cccc3nonc23)cc1-c1ccc2nc(N)ncc2c1 [Example 303, 3-(2-amino-6-quinazolinyl)-N-(2,1,3-benzoxadiazol-4-yl)-4-methylbenzamide] | ≤ 25
8 | Cc1ccc(C(=O)Nc2c3c(nn2CCC#N)CCC3)cc1-c1ccc2nc(N)ncc2c1 [Example 304, 3-(2-amino-6-quinazolinyl)-N-(2-(2-cyanoethyl)-2,4,5,6-tetrahydrocyclopenta [c]pyrazol-3-yl)-4-methylbenzamide] | ≤ 25
9 | Cc1ccc(C(=O)Nc2ccc(C(F)(F)F)cc2)cc1-c1ccc2nc(N(C)C)ncc2c1 [Example 319, 3-(2-(dimethylamino)-6-quinazolinyl)-4-methyl-N-(4-(trifluoromethyl)phenyl)benzamide] | ≤ 25
10 | Cc1cc(NC(=O)c2ccc(C)c(-c3ccc4nc(N)ncc4c3)c2)on1 [Example 323, 3-(2-amino-6-quinazolinyl)-4-methyl-N-(3-methyl-5-isoxazolyl)benzamide] | ≤ 25
11 | Cc1ccnc(NC(=O)c2ccc(C)c(-c3ccc4nc(N)ncc4c3)c2)c1 [Example 339, 3-(2-amino-6-quinazolinyl)-4-methyl-N-(4-methyl-2-pyridinyl)benzamide] | ≤ 25
12 | CCc1ccnc(NC(=O)c2ccc(C)c(-c3ccc4nc(N)ncc4c3)c2)c1 [Example 340, 3-(2-amino-6-quinazolinyl)-N-(4-ethyl-2-pyridinyl)-4-methylbenzamide] | ≤ 25
13 | Cc1csc(NC(=O)c2ccc(C)c(-c3ccc4nc(N)ncc4c3)c2)n1 [Example 341, 3-(2-amino-6-quinazolinyl)-4-methyl-N-(4-thiazol-2-yl)benzamide] | ≤ 25
14 | Cc1ccc(C(=O)Nc2nc3cc(Cl)ccc3o2)cc1-c1ccc2nc(N)ncc2c1 [Example 342, 3-(2-amino-6-quinazolinyl)-N-(5-chloro-1,3-benzoxazol-2-yl)-4-methylbenzamide] | ≤ 25
15 | Cc1ccc(C(=O)Nc2nnc(C(F)(F)F)s2)cc1-c1ccc2nc(N)ncc2c1 [Example 343, 3-(2-amino-6-quinazolinyl)-4-methyl-N-(5-(trifluoromethyl)-1,3,4-thiadiazol-2-yl)benzamide] | ≤ 25
16 | Cc1cc(NC(=O)c2ccc(C)c(-c3ccc4nc(N)ncc4c3)c2)ns1 [Example 344, 3-(2-amino-6-quinazolinyl)-4-methyl-N-(5-methyl-3-isothiazolyl) benzamide] | ≤ 25
17 | Cc1ccc(C(=O)Nc2cc(C(F)(F)F)ccn2)cc1-c1ccc2nc(N)ncc2c1 [Example 345, 3-(2-amino-6-quinazolinyl)-4-methyl-N-(4-(trifluoromethyl)-2-pyridinyl)benzamide] | ≤ 25
18 | Cc1ccc(C(=O)Nc2ncc(Cl)cc2Cl)cc1-c1ccc2nc(N)ncc2c1 [Example 346, 3-(2-amino-6-quinazolinyl)-N-(3,5-dichloro-2-pyridinyl)-4-methylbenzamide] | ≤ 25
19 | Cc1ccc(C(=O)Nc2nc(C(C)(C)C)cs2)cc1-c1ccc2nc(N)ncc2c1 [Example 352, 3-(2-amino-6-quinazolinyl)-N-(4-(1,1-dimethylethyl)-1,3-thiazol-2-yl)-4-methylbenzamide] | ≤ 25
20 | Cc1ccc(C(=O)Nc2ccc(I)cn2)cc1-c1ccc2nc(N)ncc2c1 [Example 353, 3-(2-amino-6-quinazolinyl)-N-(5-iodo-2-pyridinyl)-4-methylbenzamide] | ≤ 25

Row | Structure (SMILES) | IC50 [µM]
21 | CC(=O)c1sccc1NC(=O)c1ccc(C)c(-c2ccc3nc(N)ncc3c2)c1 [Example 355, N-(2-acetyl-3-thienyl)-3-(2-amino-6-quinazolinyl)-4-methylbenzamide] | ≤ 25
22 | Cc1ccc(C(=O)Nc2ncc(Br)s2)cc1-c1ccc2nc(N)ncc2c1 [Example 356, 3-(2-amino-6-quinazolinyl)-N-(5-bromo-1,3-thiazol-2-yl)-4-methylbenzamide] | ≤ 25
23 | Cc1ccc(C(=O)NCc2ccc(C(F)(F)F)nc2)cc1-c1ccc2nc(N)ncc2c1 [Example 357, 3-(2-amino-6-quinazolinyl)-4-methyl-N-((6-(trifluoromethyl)-3-pyridinyl)methyl) benzamide] | ≤ 25
24 | Cc1ccc(C(=O)Nc2ncccc2OCc2ccccc2)cc1-c1ccc2nc(N)ncc2c1 [Example 358, 3-(2-amino-6-quinazolinyl)-4-methyl-N-(3-((phenylmethyl)oxy)-2-pyridinyl)benzamide] | ≤ 25
25 | Cc1ccc(C(=O)Nc2cccc(C(F)(F)F)n2)cc1-c1ccc2nc(N)ncc2c1 [Example 359, 3-(2-amino-6-quinazolinyl)-4-methyl-N-(6-(trifluoromethyl)-2-pyridinyl)benzamide] | ≤ 25
26 | Cc1ccc(C(=O)Nc2ccc(C(F)(F)F)cn2)cc1-c1ccc2nc(N)ncc2c1 [Example 360, 3-(2-amino-6-quinazolinyl)-4-methyl-N-(5-(trifluoromethyl)-2-pyridinyl)benzamide] | ≤ 25
27 | Cc1ccc(C(=O)Nc2ncccc2O)cc1-c1ccc2nc(N)ncc2c1 [Example 361, 3-(2-amino-6-quinazolinyl)-N-(3-hydroxy-2-pyridinyl)-4-methylbenzamide] | ≤ 25
28 | Cc1ccc(C(=O)Nc2ncccc2OCCCN2CCCCC2)cc1-c1ccc2nc(N)ncc2c1 [Example 362, 3-(2-amino-6-quinazolinyl)-4-(methyl-N-(3-((3-1-piperidinyl)propyl)oxy)-2-pyridinyl)benzamide] | ≤ 25
29 | CCN(CC)CCOc1cccnc1NC(=O)c1ccc(C)c(-c2ccc3nc(N)ncc3c2)c1 [Example 363, 3-(2-amino-6-quinazolinyl)-N-(3-((2-(diethylamino)ethyl)oxy)-2-pyridinyl)-4-methylbenzamide] | ≤ 25
30 | Cc1ccc(C(F)(F)F)cc1NC(=O)c1ccc(C)c(-c2ccc3nc(N)ncc3c2)c1 [Example 365, 3-(2-amino-6-quinazolinyl)-4-methyl-N-(2-methyl-5-(trifluoromethyl)phenyl)benzamide] | ≤ 25
31 | Cc1ccc(C(=O)Nc2cccc(C(F)(F)F)c2C)cc1-c1ccc2nc(N)ncc2c1 [Example 369, 3-(2-amino-6-quinazolinyl)-4-methyl-N-(2-methyl-3-(trifluoromethyl)phenyl)benzamide] | ≤ 25
32 | CN1CC[C@@H](N(C)c2ccc(C(F)(F)F)cc2NC(=O)c2cc(-c3ccc4nc(N)ncc4c3)ccc2F)C1 [Example 419, 5-(2-amino-6-quinazolinyl)-2-fluoro-N-(2-(methyl((3R)-1-methyl-3-pyrrolidinyl)amino)-5-(trifluoromethyl)phenyl)benzamide] | ≤ 25
33 | Cc1ccc(C(=O)Nc2cc(C(F)(F)F)ccc2OCCN2CCCC2)cc1-c1ccc2nc(N)ncc2c1 [Example 420, 3-(2-amino-6-quinazolinyl)-4-methyl-N-(2-((2-(1-pyrrolidinyl)ethyl)oxy)-5-(trifluoromethyl)phenyl)benzamide] | ≤ 25
34 | CN1CCN(c2ccc(C(F)(F)F)cc2NC(=O)c2cc(-c3ccc4nc(N)ncc4c3)ccc2F)CC1 [Example 421, 5-(2-amino-6-quinazolinyl)-2-fluoro-N-(2-(4-methyl-1-piperazinyl)-5-(trifluoromethyl)phenyl)benzamide] | ≤ 25
35 | CN(C)[C@@H]1CCN(c2ccc(C(F)(F)F)cc2NC(=O)c2cc(-c3ccc4nc(N)ncc4c3)ccc2F)C1 [Example 422, 5-(2-amino-6-quinazolinyl)-N-(2-((3R)-3-(dimethylamino)-1-pyrrolidinyl)-5-(trifluoromethyl)phenyl)-2-fluorobenzamide] | ≤ 25
36 | Cc1ccc(C(=O)Oc2c(F)c(F)c(F)c(F)c2F)cc1-c1ccc2nc(N)ncc2c1 [Example 423, Perfluorophenyl-3-(2-aminoquinazolin-6-yl)-4-methylbenzoate] | ≤ 25
37 | Cc1ccc(C(=O)Nc2ccc(F)cc2F)cc1-c1ccc2nc(N)ncc2c1 [Example 424, 3-(2-amino-6-quinazolinyl)-N-(2,4-difluorophenyl)-4-methylbenzamide] | ≤ 25
38 | Cc1ccc(C(=O)NCc2ccncc2)cc1-c1ccc2nc(N)ncc2c1 [Example 425, 3-(2-amino-6-quinazolinyl)-4-methyl-N-(4-pyridinylmethyl) benzamide] | ≤ 25
39 | Cc1ccc(C(=O)NCc2ccccn2)cc1-c1ccc2nc(N)ncc2c1 [Example 426, 3-(2-amino-6-quinazolinyl)-4-methyl-N-(2-pyridinylmethyl) benzamide] | ≤ 25
40 | Cc1ccc(C(=O)NCCc2cccnc2)cc1-c1ccc2nc(N)ncc2c1 [Example 427, 3-(2-amino-6-quinazolinyl)-4-methyl-N-(2-(3-pyridinyl)ethyl)b enzamide] | ≤ 25
